Test results reported in patent US10259815B2, “Gabaergic ligands and their uses” (UWM Research Foundation, Inc., priority 2015, dated 2019).
Several values for one entry are separate records, joined by “and”; a condition that tells them apart may be missing. Identical values can stand only once. Entries after “also recorded” stand apart in the source; their conditions may differ.

Columns and labels:
[1] = target: T1, α3, β3, γ2 GABA A receptor (Homo sapiens, UniProt P18507+P34903); experiment: FLIPR functional assay, α3 GABAA receptor subtype in HEK-293 cells; format: cell-based; settings: α3 Binding EC50, FLIPR membrane potential, potentiation of GABA EC20
T1 construct: host or cells: HEK-293, stably transfected
T1 sequence (P34903 29-492): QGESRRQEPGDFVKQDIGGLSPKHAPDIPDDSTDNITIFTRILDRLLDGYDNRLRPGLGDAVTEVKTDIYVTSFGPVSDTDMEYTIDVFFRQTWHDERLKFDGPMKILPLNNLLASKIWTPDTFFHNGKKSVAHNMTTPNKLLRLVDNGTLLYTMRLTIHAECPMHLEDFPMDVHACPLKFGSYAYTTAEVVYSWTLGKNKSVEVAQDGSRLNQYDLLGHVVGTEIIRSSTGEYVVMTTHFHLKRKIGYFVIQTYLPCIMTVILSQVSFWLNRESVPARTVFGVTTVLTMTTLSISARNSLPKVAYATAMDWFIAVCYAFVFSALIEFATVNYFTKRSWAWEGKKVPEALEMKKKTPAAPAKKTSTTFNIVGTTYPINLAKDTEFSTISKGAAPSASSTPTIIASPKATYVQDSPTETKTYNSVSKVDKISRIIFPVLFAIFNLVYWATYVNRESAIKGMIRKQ
T1 sequence (P28472 26-473 partner): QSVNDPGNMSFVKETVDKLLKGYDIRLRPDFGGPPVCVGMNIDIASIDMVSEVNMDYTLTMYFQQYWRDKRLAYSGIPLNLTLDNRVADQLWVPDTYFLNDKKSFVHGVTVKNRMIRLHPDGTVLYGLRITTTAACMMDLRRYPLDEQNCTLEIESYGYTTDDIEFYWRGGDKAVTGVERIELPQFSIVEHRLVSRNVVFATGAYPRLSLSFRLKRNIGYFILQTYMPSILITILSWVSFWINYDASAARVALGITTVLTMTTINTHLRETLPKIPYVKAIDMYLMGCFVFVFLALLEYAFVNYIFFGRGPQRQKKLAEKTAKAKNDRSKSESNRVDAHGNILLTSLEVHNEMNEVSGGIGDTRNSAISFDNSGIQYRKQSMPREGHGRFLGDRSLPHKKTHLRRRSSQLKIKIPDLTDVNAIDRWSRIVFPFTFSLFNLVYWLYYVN
T1 sequence (P18507 40-475): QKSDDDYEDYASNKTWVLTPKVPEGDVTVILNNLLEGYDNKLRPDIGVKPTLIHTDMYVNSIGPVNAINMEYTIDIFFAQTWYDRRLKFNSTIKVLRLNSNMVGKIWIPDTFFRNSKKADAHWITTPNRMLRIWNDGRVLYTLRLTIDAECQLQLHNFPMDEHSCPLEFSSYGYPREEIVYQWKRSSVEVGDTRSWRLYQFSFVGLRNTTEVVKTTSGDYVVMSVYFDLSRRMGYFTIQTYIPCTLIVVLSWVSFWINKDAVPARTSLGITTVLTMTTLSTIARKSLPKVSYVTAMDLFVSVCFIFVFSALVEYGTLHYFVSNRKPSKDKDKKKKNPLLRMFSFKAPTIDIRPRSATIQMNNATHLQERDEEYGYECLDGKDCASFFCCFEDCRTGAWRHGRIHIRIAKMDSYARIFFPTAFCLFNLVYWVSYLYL
Source text: The FLIPR functional assay is used to determine the EC50 at the α1 and α3 GABAA receptor subtypes. A high EC50 for the α1 subtype would indicate a low chance of adverse effects, including sedation, ataxia, and muscle relaxation. A low α3 EC50 would indicate potential effectiveness as an anxiolytic, antihyperalgesic, and likely an anticonvulsant. See, for example, Liu et al. (Assay. Drug. Dev. Technol. 2008, 6, 781-6) and Joesch et al. (J. Biomol. Screen. 2008, 13, 218-28).
Compounds tested were synthesized internally and solubilized in DMSO at a 10 mM concentration. GABA was purchase from Sigma (#A2129) and prepared at 100 mM in water.
HEK-293 cells were stably transfected with the α1, β3, γ2 GABA A receptor subunits (GenBank accession numbers NM_000806.3, NM_000814.5, and NM_198904.1, respectively) or α3, β3, γ2 (NM_000808 for α3) where obtained from ChanTest Co. (Catalog # CT6216 and CT6218, respectively).
Cells were cultivated in Dulbeco's Modified Eagle's Medium (DMEM, Sigma D5796) supplemented with 10% Fetal Bovine Serum (FBS, Gibco 16000), 0.5 mg/mL Geneticin (Gibco), 0.04 mg/mL Hygromycin B (Gibco), 0.1 mg/mL Zeocin (Gibco) and 20 mM HEPES (Sigma). Cells were grown at 37° C. in a humidified atmosphere of 5% CO2. In the experiments described here frozen cells were used. For this purpose, cells were gown and maintained under confluency during 2-3 weeks and then frozen down at different cell densities using Recovery™ Cell Culture Freezing Medium (Gibco).
18 hours prior to the experiment, cells were quickly thawed at 37° C. and seeded on Poly-D-Lys 384 plates (Corning 356663) at a density of 25,000 cells/well and in 25 μL of complete cell medium as described above.
Membrane potential changes induced by the flux of ions through the receptor were measured as relative fluorescence units (RFU) using the Fluorometric Imaging Plate Reader (FLIPR Tetra®, Molecular Devices) and the FLIPR Membrane Potential Blue Assay kit (Molecular Devices). Prior to the addition of the compounds the medium was removed and cells were loaded with 20 μL of dye prepared in assay buffer composed of Hank's Balanced Salt Solution (HBSS with Ca^+2 and Mg^+2; Gibco 14025) with 20 mM Hepes. After 1 hour of incubation at room temperature (RT), the plate was placed into the FLIPR instrument and experiments were run adding first 10 μL from the 1st addition plate (compound plate) and after a 3 minutes incubation adding 20 μL of the 2nd addition or agonist plate. The response to this last GABA addition was monitored for another 3 minutes. […]
Data Analysis. The difference between the maximum and the minimum (Max-Min) fluorescence reached during the first addition or read interval and the second read interval were used for data analysis (agonist and potentiation, respectively). […]

[2] = Liver microsomal stability, mouse; format: in vitro ADME; settings: for Mouse Liver microsome stability (reported in % remaining): 37° C., 4 μM compound, 30 minutes
Protocol: In vitro metabolism studies were done in mouse, rat, human, and dogs cells (TABLE 2).
In vitro liver microsomal studies were completed to measure the stability of the compounds against degradation in various species' liver microsomes.
Compound was incubated in hepatic microsomes over a 30-minute incubation period at 37° C. Incubations both with and without NADPH (2 mM) were performed in a 96-well plate format. The reaction was initiated with the addition of substrate and was terminated by protein precipitation. All incubations were performed using a final substrate concentration of 4 μM in 50 mM sodium phosphate buffer, pH 7.4. The final organic solvent content was 0.5% acetonitrile and 0.02% DMSO. The amount of enzyme present was fixed at 1.11 mg/mL protein irrespective of the species of microsomes used. Samples were analyzed by LC/MS-MS to determine the percent loss in the NAPDH incubations relative to the NADPH free incubations.

Male NIH Swiss mice = experiment: Rotorod assay (ataxia); format: in vivo
Protocol: Male NIH Swiss mice (n=10) were dosed i.p. with vehicle (1% carboxymethyl cellulose) or one of the test compounds (10 or 30 mg/kg) 30 minutes prior to being tested on the rotorod. Mice were placed on a rod for two minutes at 4 revolutions per minute. […] Mice that fell twice failed the testing.
The rotorod assay (FIG. 5) is used to determine the ataxic effects, generally stemming from the α1 subtype, that compounds have in test subjects. Mice are trained to run on a slow, rotating cylinder for two minutes, and failure to stay on the rod may be due to ataxia. […] Each set of compounds were tested against a vehicle.
Male NIH Swiss mice (n=10/group) were trained on a rotorod (Ugo Basile 7650) at 4 r.p.m. for two minutes per training session prior to testing. On test day, mice were dosed i.p. with either vehicle (1% carboxymethyl cellulose) or one of the test compounds (10 or 30 mg/kg) 30 minutes prior to testing.

| SMILES | EC50 [1] | Mouse Liver microsome stability (reported in % remaining) [2] | rotorod performance at 30 mg/kg (Male NIH Swiss mice; 30 mg/kg i.p., 30 minutes prior, 4 r.p.m., two minutes) | Mouse % Metabolized ([2]; in vitro metabolism, mouse) | ataxic / sedative effects in rotarod assay (Male NIH Swiss mice; 10 or 30 mg/kg i.p.) |
| --- | --- | --- | --- | --- | --- |
| C#Cc1ccc2c(c1)C(c1ccccc1F)=NCc1c(-c3cnco3)ncn1-2 [KRM-II-18B, 5-(8-Ethynyl-6-(2-fluorophenyl)-4H-benzo[f]imidazo[1,5-a][1,4]diazepin-3-yl)oxazole] | 11.2 nM | 79 % remaining | failed multiple times | – | – |
| C#Cc1ccc2c(c1)C(c1ccccn1)=NCc1c(-c3cnco3)ncn1-2 [KRM-II-81, 5-(8-Ethynyl-6-(pyridin-2-yl)-4H-benzo[f]imidazo[1,5-a][1,4]diazepin-3-yl)oxazole] | 970 nM and 937 nM | 90 % remaining | – | 10.1% | less sedative effects than HZ-166; also recorded: no significant ataxic concerns |
